# What was measured:
# [1] = target: PDL1/PD1 (Homo sapiens (Human), UniProt Q9NZQ7); experiment: PDL1/PD1 Binding Assay; settings: PDL1-6xHis 0.3 nM, PD1-Fc-Avi-Biotin 2.5 nM, Acceptor/Donor beads; read-out: PD-1/PD-L1 PPI IC50
# Procedure: Compounds to be tested were serially diluted in DMSO, and further diluted in assay buffer (25 mM Hepes pH 7.4, 150 mM NaCl, 0.005% Tween 20, BSA 0.01%). Diluted compounds were added to the wells with final concentration of DMSO at 1%. PDL1-6×His protein was added to the wells, mixed well with compound. The plates were incubated for 30 min at room temperature. PD1-Fc-Avi-Biotin protein was added to the wells. Final concentration of PDL1 and PD1 protein is 0.3 nM and 2.5 nM, respectively. After a binding time of 30 min at room temperature, Anti-6×His Acceptor beads (final concentration 20 ug/ml) were added to the wells, and the incubation continued for 1 h. Streptavidin Donor beads (final concentration 20 ug/mL) were added at reduced light. The plates were sealed with foil and incubated in the dark for additional 1 h or overnight before reading on an Envision reader. The IC50 values were determined by fitting the curves using a four-parameter equation in Graphpad Prism 8.
# [2] = target: PD-1/PD-L1 interaction (Homo sapiens (Human), UniProt Q9NZQ7); experiment: PD-1/PD-L1 NFAT Reporter Assay (Jurkat T cells / PD-L1 expressing CHO cells co-culture); type: cell-based; settings: for Emax: Jurkat, maximum NFAT-activation level relative to the positive control (10 nM Atezolizumab); for EC50: co-culture 6 hrs at 37° C., luciferase
# PD-1/PD-L1 interaction, sequence (Q9NZQ7 19-290): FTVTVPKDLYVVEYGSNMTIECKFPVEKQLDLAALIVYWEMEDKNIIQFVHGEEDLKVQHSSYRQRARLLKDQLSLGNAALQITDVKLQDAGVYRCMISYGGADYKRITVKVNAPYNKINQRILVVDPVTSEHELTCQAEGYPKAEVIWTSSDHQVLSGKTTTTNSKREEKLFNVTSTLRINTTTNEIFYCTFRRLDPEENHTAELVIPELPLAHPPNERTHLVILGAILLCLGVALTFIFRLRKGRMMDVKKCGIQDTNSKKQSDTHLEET
# Procedure: Blocking the PD-1/PD-L1 interaction will release the inhibitory signal and results in TCR signaling and NFAT-mediated luciferase activity.
# CHO cells expressing surface-bound anti-CD3 antibodies and PD-L1 were first seeded overnight and treated with the compounds. Jurkat cells overexpressing PD-1 and a luciferase construct under NF-AT promoter were then immediately seeded on the monolayer of CHO cells. The co-culture was then incubated for 6 hrs at 37° C. Luciferase activity was assessed by adding the ONE-Glo reagent and measuring luminescence with a plate reader. EC50s values were determined from the fit of the dose-response curves Emax (%) corresponds to the maximum NFAT-activation level reached by a given compound relative to the positive control (10 nM Atezolizumab).
# PDL1/PD1, sequence (Q9NZQ7 19-238): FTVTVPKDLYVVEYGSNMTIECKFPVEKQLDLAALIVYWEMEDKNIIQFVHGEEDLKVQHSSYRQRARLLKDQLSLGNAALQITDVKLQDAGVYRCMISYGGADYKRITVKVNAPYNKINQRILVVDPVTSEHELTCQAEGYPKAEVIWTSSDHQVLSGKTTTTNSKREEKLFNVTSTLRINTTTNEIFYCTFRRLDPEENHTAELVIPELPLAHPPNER
SMILES,IC50 [1] [µM],Emax [2] [%],EC50 [2] [µM]
"COc1cc(-c2cccc(-c3cccc(-c4cnc(CN5CC6(CCC(=O)N6)C5)c(OC)n4)c3Cl)c2Cl)cc2c1C[C@@H](N1CC3(CCC(=O)N3)C1)C2 (single isomer, unassigned) [Compound A-12]",≤ 0.01,191,0.01 to 0.1
"CCOC(=O)C1CN([C@@H]2CCc3cc(-c4cccc(-c5cccc(-c6cnc(CN7CC(O)C7)c(OC)n6)c5Cl)c4Cl)nc(OC)c32)C1 (single isomer, unassigned) [Compound G-2]",≤ 0.01,,
COc1nc(-c2cccc(-c3cccc(-c4cc5c(c(OCC6CC6)n4)C(NC[C@@H]4CCC(=O)N4)CC5)c3Cl)c2Cl)cnc1CN1CC2(CCC(=O)N2)C1 (some centres unmarked) [Compound C-14],≤ 0.01,,0.01 to 0.1
COc1nc(-c2cccc(-c3cccc(-c4cc5c(c(OC)n4)[C@@H](NC[C@@H]4CCC(=O)N4)CC5)c3Cl)c2Cl)cnc1CN1CC2(CCC(=O)N2)C1 [Compound C-1],,,≤ 0.01
COc1nc(-c2cccc(-c3cccc(-c4cc5c(c(OCC(C)C)n4)C(NC[C@@H]4CCC(=O)N4)CC5)c3Cl)c2Cl)cnc1CN1CC2(CCC(=O)N2)C1 (some centres unmarked) [Compound C-13],,,0.01 to 0.1
COCCN1CCc2c(cc(-c3cccc(-c4cccc(-c5cnc(CN6CC7(CCC(=O)N7)C6)c(OC)n5)c4Cl)c3Cl)nc2OC)C1 [Compound K-2],,,0.01 to 0.1
COc1nc(-c2cccc(-c3cccc(-c4cc5c(c(OC)n4)[C@@H](NC[C@@H]4CCC(=O)N4)CC5)c3Cl)c2Cl)cnc1CN1C[C@@H](O)[C@@H]1C [Compound D-13],≤ 0.01,,≤ 0.01
"CCOC(=O)C1CN([C@@H]2CCc3cc(-c4cccc(-c5cccc(-c6cnc(CN7CC8(CCC(=O)N8)C7)c(OC)n6)c5Cl)c4Cl)cc(OC)c32)C1 (single isomer, unassigned) [Compound A-4]",≤ 0.01,18,
COc1nc(-c2cccc(-c3cccc(-c4cc5c(c(OC)n4)[C@@H](NC[C@@H]4CCC(=O)N4)CC5)c3Cl)c2Cl)cnc1CN1CCCC1 [Compound D-11],≤ 0.01,,≤ 0.01
"COc1nc(-c2cccc(-c3cccc(-c4cc5c(c(OC)n4)[C@@H](N4CC(O)C4)CC5)c3Cl)c2Cl)cnc1CN1CC2(CCC(=O)N2)C1 (single isomer, unassigned) [Compound C-5]",≤ 0.01,,≤ 0.01
"COc1cc(-c2cccc(-c3cccc(-c4cnc(CN5CC6(CCC(=O)N6)C5)c(OC)n4)c3Cl)c2Cl)cc2c1C[C@@H](N1CC(O)C1)C2 (single isomer, unassigned) [Compound A-10]",≤ 0.01,172,0.01 to 0.1
COc1nc(-c2cccc(-c3cccc(-c4cc5c(c(OCc6ccccn6)n4)C(NC[C@@H]4CCC(=O)N4)CC5)c3Cl)c2Cl)cnc1CN1CC2(CCC(=O)N2)C1 (some centres unmarked) [Compound C-15],≤ 0.01,,0.01 to 0.1
CCOc1nc(-c2cccc(-c3cccc(-c4cnc(CN5CC6(CCC(=O)N6)C5)c(OC)n4)c3Cl)c2Cl)cc2c1C(NC[C@@H]1CCC(=O)N1)CC2 (some centres unmarked) [Compound C-12],≤ 0.01,,0.01 to 0.1
COc1nc(-c2cccc(-c3cccc(-c4cc5c(c(OC)n4)[C@@H](NC[C@@H]4CCC(=O)N4)CC5)c3Cl)c2Cl)cnc1CN1CCN(C(C)=O)CC1 [Compound D-6],≤ 0.01,,≤ 0.01
CCOC(=O)CN[C@H]1CCc2cc(-c3cccc(-c4cccc(-c5cnc(CN6CC7(CCC(=O)N7)C6)c(OC)n5)c4Cl)c3Cl)cc(OC)c21 [Compound A-1],≤ 0.01,33,
"CCOC(=O)C1CN([C@H]2CCc3cc(-c4cccc(-c5cccc(-c6cnc(CN7CC(OC)C7)c(OC)n6)c5Cl)c4Cl)nc(OC)c32)C1 (single isomer, unassigned) [Compound G-5]",≤ 0.01,,0.01 to 0.1
"COc1nc(-c2cccc(-c3cccc(-c4cc5c(c(OC)n4)[C@H](N4CC(C(=O)O)C4)CC5)c3Cl)c2Cl)cnc1CN1CC(OC)C1 (single isomer, unassigned) [Compound H-4]",≤ 0.01,,0.1 to 1
"CCOC(=O)C1CN([C@@H]2CCc3cc(-c4cccc(-c5cccc(-c6cnc(CN7CC(OC)C7)c(OC)n6)c5Cl)c4Cl)nc(OC)c32)C1 (single isomer, unassigned) [Compound G-6]",≤ 0.01,,1 to 10
"COc1nc(-c2cccc(-c3cccc(-c4cc5c(c(OC)n4)[C@H](N4CC(C(=O)O)C4)CC5)c3Cl)c2Cl)cnc1CN1C[C@@H](O)[C@@H]1C (single isomer, unassigned) [Compound H-6]",≤ 0.01,,0.1 to 1
COc1nc(-c2cccc(-c3cccc(-c4cc5c(c(OC)n4)CCN(CC(=O)O)C5)c3Cl)c2Cl)cnc1CN1CC(O)C1 [Compound J-1],,,0.01 to 0.1

SMILES,IC50 [1] [µM],Emax [2] [%],EC50 [2] [µM]
"COc1nc(-c2cccc(-c3cccc(-c4cc5c(c(OC)n4)[C@H](N4CC6(CCC(=O)N6)C4)CC5)c3Cl)c2Cl)cnc1CN1CC2(CCC(=O)N2)C1 (single isomer, unassigned) [Compound C-4]",≤ 0.01,,> 10
"COc1nc(-c2cccc(-c3cccc(-c4cc5c(c(OC)n4)[C@@H](N4CC6(CCC(=O)N6)C4)CC5)c3Cl)c2Cl)cnc1CN1CC2(CCC(=O)N2)C1 (single isomer, unassigned) [Compound C-3]",≤ 0.01,,≤ 0.01
COc1nc(-c2cccc(-c3cccc(-c4cc5c(c(OC)n4)[C@@H](NC[C@@H]4CCC(=O)N4)CC5)c3Cl)c2Cl)cnc1CN1CC(OC)C1 [Compound D-9],≤ 0.01,,≤ 0.01
"COc1cc(-c2cccc(-c3cccc(-c4cnc(CN5CC6(CCC(=O)N6)C5)c(OC)n4)c3Cl)c2Cl)cc2c1[C@@H](N1CC(C(=O)O)C1)CC2 (single isomer, unassigned) [Compound B-3]",≤ 0.01,112,0.1 to 1
"COc1nc(-c2cccc(-c3cccc(-c4cc5c(c(OC)n4)[C@H](N4CC(O)C4)CC5)c3Cl)c2Cl)cnc1CN1CC2(CCC(=O)N2)C1 (single isomer, unassigned) [Compound C-6]",≤ 0.01,,0.1 to 1
COc1nc(-c2cccc(-c3cccc(-c4cc5c(c(OC)n4)[C@@H](NC[C@@H]4CCC(=O)N4)CC5)c3Cl)c2Cl)cc(C)c1CN1CC2(C1)CN(C(C)=O)C2 [Compound E-2],,,≤ 0.01
CCOC(=O)CN1CCc2c(cc(-c3cccc(-c4cccc(-c5cnc(CN6CC(O)(C(F)(F)F)C6)c(OC)n5)c4Cl)c3Cl)nc2OC)C1 [Compound I-3],,,1 to 10
COc1nc(-c2cccc(-c3cccc(-c4cc5c(c(OC)n4)CCN(C[C@@H]4CCC(=O)N4)C5)c3Cl)c2Cl)cnc1CN1CC2(CCC(=O)N2)C1 [Compound K-1],,,0.01 to 0.1
COc1nc(-c2cccc(-c3cccc(-c4cc5c(c(OC)n4)[C@H](NC[C@@H]4CCC(=O)N4)CC5)c3Cl)c2Cl)cnc1CN1CCCC1 [Compound D-12],≤ 0.01,,
"COc1nc(-c2cccc(-c3cccc(-c4cc5c(c(OC)n4)[C@@H](N4CC6(CN(C(C)=O)C6)C4)CC5)c3Cl)c2Cl)cnc1CNC[C@@H]1CCC(=O)N1 (single isomer, unassigned) [Compound D-16]",≤ 0.01,,
"COc1nc(-c2cccc(-c3cccc(-c4cc5c(c(OC)n4)[C@H](NC[C@@H]4CCC(=O)N4)CO5)c3Cl)c2Cl)cc(C)c1CN1CC2(C1)CN(C(C)=O)C2 (single isomer, unassigned) [Compound E-5]",≤ 0.01,,
COc1nc(-c2cccc(-c3cccc(-c4cc5c(c(OC)n4)[C@@H](N4CC(C(=O)O)C4)CC5)c3Cl)c2Cl)cnc1CN1CC(O)C1 [Compound H-1],,,0.01 to 0.1
"CCOC(=O)C1CN([C@H]2CCc3cc(-c4cccc(-c5cccc(-c6cnc(CN7C[C@@H](O)[C@@H]7C)c(OC)n6)c5Cl)c4Cl)nc(OC)c32)C1 (single isomer, unassigned) [Compound G-3]",,,> 10
CCOC(=O)CN1CCc2c(cc(-c3cccc(-c4cccc(-c5cnc(CN6CC(O)C6)c(OC)n5)c4Cl)c3Cl)nc2OC)C1 [Compound I-1],,,0.1 to 1
COc1nc(-c2cccc(-c3cccc(-c4cc5c(c(OC)n4)[C@@H](NC[C@@H]4CCC(=O)N4)CC5)c3Cl)c2Cl)cnc1CN1CC2(C1)CN(C(C)=O)C2 [Compound D-1],,,≤ 0.01
"CCOC(=O)C1CN([C@@H]2CCc3cc(-c4cccc(-c5cccc(-c6cnc(CN7C[C@@H](O)[C@@H]7C)c(OC)n6)c5Cl)c4Cl)nc(OC)c32)C1 (single isomer, unassigned) [Compound G-4]",,,1 to 10
COc1nc(-c2cccc(-c3cccc(-c4cc5c(c(OC)n4)C(N4CCC[C@@H](C(=O)O)C4)CC5)c3Cl)c2Cl)cnc1CN1CC(O)C1 (some centres unmarked) [Compound F-1],,,0.01 to 0.1
CCOC(=O)C1CN([C@H]2CCc3cc(-c4cccc(-c5cccc(-c6cnc(CN7CC(O)C7)c(OC)n6)c5Cl)c4Cl)nc(OC)c32)C1 [Compound G-1],,,0.01 to 0.1
COc1nc(-c2cccc(-c3cccc(-c4cc5c(c(OC)n4)[C@@H](NC[C@@H]4CCC(=O)N4)CC5)c3Cl)c2Cl)ccc1CNC[C@@H]1CCC(=O)N1 [Compound E-1],,,≤ 0.01

# From patent publication US11760761B2, “Methods and compositions for targeting PD-L1” (Aligos Therapeutics, Inc., priority 2020, dated 2023)
